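All cell lines were grown in 96-well plates and treated with compound for 48 hours. GI50 = concentration required for 50% inhibition of growth. TGI denotes the concentration required for complete inhibition of growth.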
Experiments:
Assay in all cases: growth of human tumour cells (NCI), 48 h
[1] = tested on: DLD-1 colon
[2] = tested on: DMS 114 small cell lung
[3] = tested on: M14 melanoma
[4] = tested on: SNB-78 CNS
[5] = tested on: XF 498 CNS
[6] = tested on: BT-549 breast
[7] = tested on: MDA-MB-231 breast
[8] = tested on: MDA-MB-435
[9] = tested on: PC-3 prostate
[10] = tested on: T-47D breast

Compound	TGI [1]	TGI [2]	TGI [3]	TGI [4]	TGI [5]	other results
CCC1c2cc3n(c(=O)c2COC1O)Cc1c-3nc2ccccc2c1Cl (stereo not given)	> 100 µM	> 100 µM	> 75 µM	> 100 µM	> 100 µM	–
CN(C)CC1CCCCCCCCCCCCC(CN(C)C)C1=O (stereo not given)	29.6 µM	31.3 µM	25.9 µM	28.7 µM	–	–
C=CCC12CCC(=O)[C@@]1(C)CC=C(O)C2=O (stereo not given in full)	> 100 µM	> 100 µM	> 100 µM	> 100 µM	–	–
O=[N+]([O-])c1ccc(/C(Cl)=C/c2ccc(/C=C(\Cl)c3ccc([N+](=O)[O-])cc3[N+](=O)[O-])cc2)c([N+](=O)[O-])c1	> 100 µM	> 100 µM	> 100 µM	> 100 µM	–	–
C=C1C(=O)c2cc3c(cc2C(c2cc(OC)c(OC)c(OC)c2)[C@@H]1C(=O)O)OCO3 (stereo not given in full)	> 100 µM	> 100 µM	> 100 µM	> 100 µM	–	–
N#CC(/C(=N/NC(N)=S)C(=O)Nc1cccc(Cl)c1)c1ccccc1 (stereo not given)	> 100 µM	> 100 µM	> 100 µM	–	> 100 µM	–
CC(=O)N(CCN1C(=O)c2ccccc2C1=O)CCN1C(=O)c2ccccc2C1=O	> 100 µM	> 100 µM	> 100 µM	> 100 µM	> 100 µM	–
COC(=O)c1nc(C(=O)OC)c2c([nH]c3ccccc32)c1C(=O)OC	> 100 µM	> 100 µM	> 100 µM	> 100 µM	> 100 µM	–
O=c1nc(N2CCCC2)nc(N2CCCC2)s1	> 100 µM	> 100 µM	> 100 µM	> 100 µM	> 100 µM	–
Cc1ccc(NC(=O)/C(=N\NC(N)=S)C(C#N)c2ccccc2C)cc1C (stereo not given)	> 100 µM	> 100 µM	> 100 µM	> 100 µM	> 100 µM	–
O=C1NC(=O)C2C1C1C=C3c4ccccc4N(c4ccccc4)C32[C@H]2C(=O)NC(=O)[C@@H]12 (stereo not given in full)	> 100 µM	> 100 µM	> 100 µM	> 100 µM	–	–
C=C1c2[nH]c3ccccc3c2CC(C(=O)O)N1C(O)c1ccc(S(=O)(=O)O)cc1 (stereo not given)	> 100 µM	> 100 µM	> 100 µM	> 100 µM	> 100 µM	–
COC1=CC(=O)OC(/C=C(C)/C=C/C2=C(C)CCCC2(C)C)C1 (stereo not given)	> 100 µM	> 100 µM	> 100 µM	> 100 µM	–	–
NC(=S)N/N=C(\CCC(=O)Nc1ccccc1[N+](=O)[O-])CC(=O)c1ccco1	> 100 µM	> 100 µM	> 100 µM	> 100 µM	> 100 µM	–
CC(C)(CN1CCCCC1)C(=O)CC(SCCN)c1ccc(Cl)cc1 (stereo not given)	3.35 µM	3.43 µM	3.63 µM	8.9 µM	4.1 µM	–
CCc1cccc(CC)c1NC(=O)CC1SC(N)=NC1=O (stereo not given)	–	> 100 µM	> 100 µM	> 100 µM	> 100 µM	–
O=C(Cc1ccccc1)NN1C(=O)C(Cl)C1c1cccc([N+](=O)[O-])c1 (stereo not given)	> 100 µM	> 93.4 µM	> 100 µM	> 100 µM	> 57.1 µM	–
CC(=O)SC(SC(C)=O)SC(C)=O	> 100 µM	> 100 µM	> 100 µM	> 100 µM	–	–
CC(=O)OCC1OC([Se-])C(OC(C)=O)C(OC(C)=O)C1OC(C)=O.N#CCC[PH+](CCC#N)CCC#N.[Au+] (stereo not given)	> 63.6 µM	–	18.3 µM	79.3 µM	34.6 µM	GI50 [1]: 7.78 µM; GI50 [3]: 3.63 µM; GI50 [4]: 20.1 µM; GI50 [5]: 8.09 µM
CC(=O)CC(=O)NC=O	> 100 µM	> 100 µM	> 100 µM	> 100 µM	> 100 µM	–
O=C(N/C=C/C=C/Sc1ccccc1)OCc1ccccc1	29 µM	32.3 µM	32.9 µM	> 100 µM	43.9 µM	–

Compound	TGI [1]	TGI [2]	TGI [3]	TGI [4]	TGI [5]	other results
CCOc1cc(/C=C/C(=O)C(C(=O)/C=C/c2ccc(OC(=O)CNc3nnc(C)s3)c(OCC)c2)C(=O)CNc2nnc(C)s2)ccc1OC(=O)CNc1nnc(C)s1	–	–	10 µM	–	–	GI50 [6]: 1.98 µM; TGI [6]: 5.33 µM; GI50 [3]: 2.4 µM; GI50 [7]: 1.99 µM; TGI [7]: 6.15 µM; GI50 [8]: 1.53 µM; TGI [8]: 8.7 µM; GI50 [9]: 1.51 µM; TGI [9]: 15.6 µM; GI50 [10]: 3.4 µM; TGI [10]: 35.6 µM
O=C(O)c1ccc(C(=O)O)c(C(=O)O)c1.[NH-]C1CCCCC1[NH-].[Pt+2]	> 87.4 µM	–	37.4 µM	99.9 µM	16.5 µM	GI50 [6]: 23.8 µM; TGI [6]: 54.2 µM; GI50 [1]: 5.25 µM; GI50 [3]: 9.61 µM; GI50 [7]: 16.7 µM; TGI [7]: > 73.6 µM; GI50 [8]: 3.83 µM; TGI [8]: 30.4 µM; GI50 [9]: 4.94 µM; TGI [9]: 59.5 µM; GI50 [4]: 24.6 µM; GI50 [10]: 6.58 µM; TGI [10]: 67.2 µM; GI50 [5]: 1.8 µM
CC1=NC=C(O)c2ccccc2O1	> 100 µM	> 100 µM	> 100 µM	> 100 µM	–	–
C#CCn1c(=O)c2cccnc2n(CC#C)c1=O	> 100 µM	–	> 100 µM	> 100 µM	> 100 µM	–
COC1=CC(=O)c2c(cc3c(c2O)-c2c(OC)cc4cc5c(c(O)c4c2OC(=O)CC(C)(O)C3)C(=O)CC(C)(O)C5)C1=O (stereo not given)	9.01 µM	3.58 µM	2.66 µM	7.12 µM	3.23 µM	–
CS(=N)(=O)CCC(N)P(=O)(O)O (stereo not given)	–	–	> 100 µM	–	–	TGI [6]: > 100 µM; TGI [7]: > 100 µM; TGI [8]: > 100 µM; TGI [9]: > 100 µM; TGI [10]: > 100 µM
O=C(Cc1ccccc1)N/N=C(/c1nc2ccc([N+](=O)[O-])cc2[nH]c1=O)C(O)c1ccc(C(O)/C(=N/NC(=O)Cc2ccccc2)c2nc3ccc([N+](=O)[O-])cc3[nH]c2=O)cc1 (stereo not given)	> 100 µM	> 100 µM	> 100 µM	–	> 100 µM	–
O=C1Oc2cc3c(c4cccc1c24)OCN(c1ccccc1)C3	> 100 µM	> 100 µM	> 100 µM	–	> 100 µM	–
O=C(O)CCC1CCc2cccc(OCC(=O)O)c2C1=O (stereo not given)	> 100 µM	> 100 µM	> 100 µM	> 100 µM	> 100 µM	–
COc1ccc2[nH]c3c4c(cc(-c5ccccc5)c3c2c1)C(=O)N(c1ccccc1)C4=O	> 100 µM	> 100 µM	> 95.4 µM	> 88.3 µM	–	–
O=C1C=CC(=O)N1c1ccc(I)cc1	–	–	31.2 µM	–	–	TGI [6]: 36 µM; TGI [7]: 52.7 µM; TGI [8]: 34.7 µM; TGI [9]: 40.7 µM; TGI [10]: 72.3 µM
Cc1cc(=O)oc2cc(OC(=O)Nc3ccccc3)ccc12	–	–	> 100 µM	–	–	TGI [6]: > 100 µM; TGI [7]: > 100 µM; TGI [8]: > 100 µM; TGI [9]: > 100 µM; TGI [10]: > 100 µM
CC1(C)OC2C(CO)OC(n3ccc(N)nc3=O)C2O1 (stereo not given)	–	–	> 100 µM	–	–	TGI [6]: > 100 µM; TGI [7]: > 100 µM; TGI [8]: > 100 µM; TGI [9]: > 100 µM; TGI [10]: > 100 µM
COc1ccc(/C=C/C(=O)c2ccc(Nc3nc(Nc4ccc(F)cc4)nc(Nc4ccc(Cl)cc4)n3)cc2)cc1	–	–	> 100 µM	–	–	GI50 [6]: > 100 µM; TGI [6]: > 100 µM; GI50 [3]: > 100 µM; GI50 [7]: 29.5 µM; TGI [7]: > 100 µM; GI50 [8]: > 100 µM; TGI [8]: > 100 µM; GI50 [9]: 30.6 µM; TGI [9]: > 100 µM; GI50 [10]: 72.6 µM; TGI [10]: > 100 µM
CCC(C)CC(C)C(=O)c1c(O)ccn(O)c1=O (stereo not given)	–	–	15 µM	–	–	GI50 [6]: 2.56 µM; TGI [6]: 37.9 µM; GI50 [3]: 1.61 µM; GI50 [7]: 1.04 µM; TGI [7]: > 100 µM; GI50 [8]: 1.87 µM; TGI [8]: > 100 µM; GI50 [9]: 1.33 µM; TGI [9]: > 100 µM; GI50 [10]: 4.12 µM; TGI [10]: 76.9 µM
O=C(Cc1ccc(Nc2ccnc(C(F)(F)F)c2)cc1)N/N=C/c1ccccc1O	–	–	19.5 µM	–	–	GI50 [6]: 2.43 µM; TGI [6]: > 39.2 µM; GI50 [3]: 1.82 µM; GI50 [7]: 2.55 µM; TGI [7]: > 74.9 µM; GI50 [8]: 3.67 µM; TGI [8]: > 77.5 µM; GI50 [9]: 1.09 µM; TGI [9]: 16.6 µM; GI50 [10]: 3.26 µM; TGI [10]: 17.7 µM
NC1=NC2=C(CCCC2)C(c2cccs2)S1 (stereo not given)	–	> 100 µM	> 100 µM	> 100 µM	> 100 µM	–
CCCCCC#COC1CC(C)CC[C@@H]1C(C)C (stereo not given in full)	> 100 µM	–	> 100 µM	> 100 µM	–	–
Cc1cc2c(cc1C)[n+](=O)c(C(=O)CC(=O)C(=O)Nc1ccccc1C(C)C)c(C)n2[O-]	–	> 100 µM	> 100 µM	> 100 µM	> 100 µM	–
Fc1ccc(C2SCc3nc4ccccc4n32)cc1F (stereo not given)	> 100 µM	77.8 µM	76.7 µM	> 100 µM	> 100 µM	–
